# Measured values: patent US5360803A, “Composition and method for treating cancer” (Dan Farber Cancer Institute, priority 1992, dated 1994)
# How the values were obtained:
# CV-1 cells = assay: selective killing assay, colony number reduced to 50% of control, normal monkey kidney epithelial cell line CV-1; format: cell-based; settings: Primates, CV-1, Table III; normal monkey kidney epithelial cells, 24 hours treatment, colony count after 7 to 10 days
# From the text: The control received culture media only.
# CX-1 cells = assay: selective killing assay, colony number reduced to 50% of control, human colon carcinoma cell line CX-1; format: cell-based; settings: for Selectivity (ratio of IC50 for CV-1 and IC50 for CX-1): CV-1/CX-1; for IC50: Homo sapiens, CX-1, Table III, human colon carcinoma, 24 hours treatment, colony count after 7 to 10 days;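 as to all read-outs here: colonies stained with crystal violet and counted, control cells given medium alone, exposure at 37 °C, normal monkey kidney epithelial CV-1 cells as the non-cancer comparator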
# normal nude mice = assay: toxicity to normal nude mice
Structure (SMILES),IC50 (CV-1 cells) [µg/mL],Selectivity (ratio of IC50 for CV-1 and IC50 for CX-1) (CX-1 cells),IC50 (CX-1 cells) [µg/mL],toxicity to normal nude mice (normal nude mice)
"CCN1C(=CC=Cc2sc3c4ccccc4ccc3[n+]2CC)Sc2c1ccc1ccccc21 [B, reference compound]",< 0.1,< 2,0.05,highly toxic to normal nude mice
"CCCN1C(=CC=CC=Cc2oc3ccccc3[n+]2CCC)Oc2ccccc21 [E, reference compound]",6,12,0.5,less toxic to normal nude mice
"CCN1C(=CC=CC=Cc2sc3ccccc3[n+]2CC)Oc2ccccc21 [F, reference compound]",1.5,50,0.03,less toxic to normal nude mice
"CCN1C(=CC(C)=Cc2sc3c4ccccc4ccc3[n+]2CC)Sc2c1ccc1ccccc21 [G, reference compound]",0.1,5,0.02,highly toxic to normal nude mice
"CCN1C(=CC=C(Cl)C=Cc2sc3ccc4ccccc4c3[n+]2CC)Sc2ccc3ccccc3c21 [H, reference compound]",0.1,2.5,0.04,highly toxic to normal nude mice
